Experimental data reported in PubChem BioAssay (NCI).
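Exposure lasted 48 hours, with cells grown in 96-well plates and compounds tested at five concentrations. GI50 = concentration required for 50% inhibition of growth. TGI: total growth inhibition.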

What was measured:
Test in all cases: growth of human tumour cells (NCI), 48 h
786-0 renal = system: 786-0 renal
A498 renal = system: A498 renal
LOX IMVI melanoma = system: LOX IMVI melanoma
NCI-H23 lung = system: NCI-H23 lung
OVCAR-5 ovarian = system: OVCAR-5 ovarian
SK-MEL-2 melanoma = system: SK-MEL-2 melanoma
SK-OV-3 ovarian = system: SK-OV-3 ovarian
SNB-75 CNS = system: SNB-75 CNS
SR leukemia = system: SR leukemia
T-47D breast = system: T-47D breast

| SMILES | TGI (786-0 renal) | TGI (A498 renal) | TGI (LOX IMVI melanoma) | TGI (NCI-H23 lung) | TGI (OVCAR-5 ovarian) | TGI (SK-MEL-2 melanoma) | TGI (SK-OV-3 ovarian) | TGI (SNB-75 CNS) | TGI (SR leukemia) | TGI (T-47D breast) | GI50 (786-0 renal) | GI50 (A498 renal) | GI50 (LOX IMVI melanoma) | GI50 (NCI-H23 lung) | GI50 (OVCAR-5 ovarian) | GI50 (SK-MEL-2 melanoma) | GI50 (SK-OV-3 ovarian) | GI50 (SNB-75 CNS) | GI50 (SR leukemia) | GI50 (T-47D breast) |
| --- | --- | --- | --- | --- | --- | --- | --- | --- | --- | --- | --- | --- | --- | --- | --- | --- | --- | --- | --- | --- |
| Cc1cccc(Cl)c1NC(=O)/C=C/c1ccccc1 | > 100 µM | > 100 µM | > 100 µM | > 100 µM | > 100 µM | > 100 µM | > 100 µM | 87.1 µM | > 100 µM | > 100 µM | – | – | – | – | – | – | – | – | – | – |
| CCN=c1cc2sc3cc(NCC)c(C)cc3nc-2cc1C | 15.5 µM | 53.4 µM | 4.28 µM | 3.69 µM | 9.26 µM | 4.64 µM | 12.6 µM | 5.11 µM | > 100 µM | 10.5 µM | 3.1 µM | 14 µM | 0.746 µM | 0.437 µM | 2.51 µM | 1.82 µM | 2.58 µM | 1.8 µM | 1.01 µM | 0.58 µM |
| c1ccc2c(c1)-c1ccccc1C2N1CC2CCC(CC2)C1 | > 100 µM | 40.1 µM | 40.5 µM | 47.5 µM | 37.2 µM | 30.7 µM | > 100 µM | 61.4 µM | 50.6 µM | 43.3 µM | – | – | – | – | – | – | – | – | – | – |
| O=C(Nc1cc[c]([Sb](=[O])([OH])[OH])cc1)c1ccccc1 | > 100 µM | > 100 µM | > 100 µM | > 100 µM | > 100 µM | > 100 µM | – | > 100 µM | > 100 µM | > 100 µM | > 100 µM | > 100 µM | > 100 µM | > 100 µM | > 100 µM | > 100 µM | – | > 100 µM | > 100 µM | > 100 µM |
| O=c1[nH]ccc2nc(N3CCC(O)CC3)nc(Nc3cccc(C(F)(F)F)c3)c12 | > 100 µM | > 100 µM | 16.6 µM | 13.9 µM | 94.3 µM | – | > 100 µM | 82.1 µM | 26.9 µM | 26.1 µM | 2.06 µM | 2.5 µM | 1.42 µM | 3.24 µM | 28.3 µM | – | 0.486 µM | 5.76 µM | 0.707 µM | 3.11 µM |
| Cc1cc(N2CCN(c3ccnc4cc(Cl)ccc34)CC2)nc(NC2CCCCC2)n1 | 3.05 µM | 3.21 µM | 3.19 µM | 8.37 µM | – | – | 4.51 µM | 3.95 µM | 4.73 µM | 4.7 µM | 1.57 µM | 0.118 µM | 1.73 µM | 3.04 µM | – | – | 2.02 µM | 1.79 µM | 1.93 µM | 1.89 µM |
| NC(=O)c1ccc2c(-c3ccnc(NCCCO)n3)c(-c3ccc(F)cc3)nn2c1 | > 25 µM | > 25 µM | > 25 µM | > 25 µM | > 25 µM | > 25 µM | > 25 µM | > 25 µM | > 25 µM | > 25 µM | > 25 µM | 7.24 µM | > 25 µM | > 25 µM | > 25 µM | > 25 µM | > 24.2 µM | > 10 µM | > 25 µM | > 25 µM |
| CCOc1ccc(Nc2nc(-c3ccc4c(c3)NC(=O)CO4)cs2)cc1 | > 100 µM | 55.4 µM | > 100 µM | > 100 µM | > 100 µM | 13.8 µM | > 100 µM | > 100 µM | > 100 µM | 10.4 µM | 14.3 µM | 13.6 µM | 5.33 µM | 6.96 µM | > 100 µM | 3.98 µM | 32.5 µM | 18 µM | 4.68 µM | 1.94 µM |
| Cc1cc(I)cc(CN(C)CCN2CCCC2)c1O | 59.8 µM | 67.2 µM | 35.2 µM | > 100 µM | > 93.6 µM | 63.1 µM | > 100 µM | 47.2 µM | 5.84 µM | 76 µM | 21.1 µM | 32.7 µM | 17.8 µM | 39 µM | 32.8 µM | 25.6 µM | 37.9 µM | 17.5 µM | 1.79 µM | 21.5 µM |
| COc1ccc(-c2ccc(/C=N/n3c(COc4ccc(Cl)cc4Cl)nn(CN4CCN(C)CC4)c3=S)o2)c([N+](=O)[O-])c1 | > 100 µM | 5.1 µM | 25.2 µM | 30.6 µM | 97.1 µM | – | 80.7 µM | > 100 µM | 96.1 µM | 53.2 µM | 21.4 µM | 2.28 µM | 11.4 µM | 13.3 µM | 24.2 µM | – | 30.8 µM | 67.5 µM | 31.1 µM | 11.7 µM |
